From patent US7632807B2, “Cyclosporin alkynes and their utility as pharmaceutical agents” (Albany Molecular Research, Inc., priority 2004, dated 2009)
Values after ≈ are worked out from the molar mass of the structure shown. “Also recorded” adds a separate entry of the source.

Legend:
[1] = literature value (Rich et al. 1990); cited from earlier work
[2] = test system: concanavalin A-stimulated murine splenocytes; assay: Concanavalin A (ConA)-stimulated murine splenocyte assay; type: cell-based, mouse (BALB/c)
Protocol: Concanavalin A—Stimulated Splenocyte Assay
Male BALB/c mice, at 5 to 7 weeks of age, were sacrificed by CO2 inhalation. Spleens were removed and dissociated by pushing through a nylon cell strainer. The splenocytes were washed in RPMI 1640/5% fetal calf serum (FCS) and pelleted at 400×g. Red blood cells were then lysed by resuspending the cell pellet in ACK lysis buffer (150 mM NH4Cl, 1 mM KHCO3, 0.1 mM EDTA, 3 mL per spleen) for 10 min at room temperature. After pelleting at 400×g, the cells were washed by resuspending in RPMI 1640/5% FCS and repelleting. The cell pellet was resuspended in RPMI 1640/5% FCS and again passed through a cell strainer to remove cell aggregates. The cells were then counted and adjusted to 2×10^6 cells/ml in RPMI 1640/10% FCS/[…] 2-mercaptoethanol. Cell viability was assessed by Trypan blue staining. […] The cells were cultured in a 37° C. CO2 incubator for 2 days and then pulsed with 1 μCi of [^3H]thymidine for 6 hours. Cells were harvested onto filtermats with a TomTec 96 well plate harvester and lysed with H2O. The filtermat and scintillation fluid were sealed in a plastic sleeve. [^3H]thymidine incorporation was measured with a Wallac Trilux plate counter. Initial screens were done at a fixed value of 100 ng/ml test compound. IC50s were calculated from 7 point concentration-response curves using graphPad software.

Row | SMILES | relative immunosuppressive activity, compared to cyclosporin A [1] [%] | immunosuppressive potency compared to cyclosporin A ([2]; FIG. 1, ConA-stimulated murine splenocyte assay) | IC50 ([2]; novel cyclosporin alkyne analogue, ConA-stimulated BALB/c splenocytes, [3H]thymidine incorporation, 7 point concentration-response curves) [mg/L]
1 | CC#CC[C@@H](C)[C@@H](O)[C@H]1C(=O)N[C@@H](CC)C(=O)N(C)CC(=O)N(C)[C@@H](CC(C)C)C(=O)N[C@@H](C(C)C)C(=O)N(C)[C@@H](CC(C)C)C(=O)N[C@@H](C)C(=O)N[C@H](C)C(=O)N(C)[C@@H](CC(C)C)C(=O)N(C)[C@@H](CC(C)C)C(=O)N(C)[C@@H](C(C)C)C(=O)N1C [known cyclosporin alkyne] | 10 | – | –
2 | C#CC#CC[C@@H](C)[C@@H](O)[C@H]1C(=O)N[C@@H](CC)C(=O)N(C)CC(=O)N(C)[C@@H](CC(C)C)C(=O)N[C@@H](C(C)C)C(=O)N(C)[C@@H](CC(C)C)C(=O)N[C@@H](C)C(=O)N[C@H](C)C(=O)N(C)[C@@H](CC(C)C)C(=O)N(C)[C@@H](CC(C)C)C(=O)N(C)[C@@H](C(C)C)C(=O)N1C [Example 25, cyclosporine diyne] | – | enhanced or similar potency in immunosuppression; also recorded: two times more potent over cyclosporin A | 0.012 (≈ 9.91 nM)
